One assay deals with Plasminogen (Homo sapiens, UniProt P00747). Nature of the assay: Inhibition of plasmin.
For a further assay, the system named is Jurkat. Nature of the assay: Cytotoxicity against human Jurkat cells. In kind it is functional, cell-based.

Drawing on ChEMBL document CHEMBL1158716, “Sesquiterpenoids and plasmin-inhibitory flavonoids from Blumea balsamifera” (J Nat Prod, 2005), this text covers IC50 for five molecules.

In general, IC50 refers to the point on the concentration scale where inhibition reaches its midpoint. The low end stands for greater potency, the high end for weaker potency.

Each structure is given as a SMILES string.

Chain of Plasminogen (P00747 97-580 limits assumed): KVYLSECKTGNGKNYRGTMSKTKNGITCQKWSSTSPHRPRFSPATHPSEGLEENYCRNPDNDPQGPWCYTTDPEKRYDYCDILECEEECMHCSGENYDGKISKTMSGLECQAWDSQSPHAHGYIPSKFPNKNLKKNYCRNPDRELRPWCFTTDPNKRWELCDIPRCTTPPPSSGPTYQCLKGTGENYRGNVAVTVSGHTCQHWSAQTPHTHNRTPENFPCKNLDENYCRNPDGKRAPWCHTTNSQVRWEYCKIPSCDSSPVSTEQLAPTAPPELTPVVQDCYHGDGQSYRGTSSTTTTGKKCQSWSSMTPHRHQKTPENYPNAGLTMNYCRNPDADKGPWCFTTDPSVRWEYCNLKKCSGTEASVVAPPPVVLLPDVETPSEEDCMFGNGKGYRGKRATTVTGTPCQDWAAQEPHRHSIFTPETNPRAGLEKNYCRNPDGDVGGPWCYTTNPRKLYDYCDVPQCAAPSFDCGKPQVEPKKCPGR
Chain of Plasminogen (P00747 581-810 limits assumed): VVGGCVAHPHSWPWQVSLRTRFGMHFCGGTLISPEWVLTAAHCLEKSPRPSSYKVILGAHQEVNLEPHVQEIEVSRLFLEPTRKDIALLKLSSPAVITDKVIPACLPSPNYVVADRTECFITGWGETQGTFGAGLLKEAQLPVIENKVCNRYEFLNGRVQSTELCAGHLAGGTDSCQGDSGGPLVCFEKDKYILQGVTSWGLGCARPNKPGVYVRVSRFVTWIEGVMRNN

`COc1cc(O)c2c(=O)c(OC)c(-c3ccc(O)c(O)c3)oc2c1` showed an IC50 at Plasminogen of 1.5 µM.

`COc1cc(O)c2c(=O)cc(-c3ccc(O)c(O)c3)oc2c1`: the IC50 against Plasminogen came to 2.3 µM.

The molecule `C/C1=C\C(=O)[C@@H](C(C)C)C[C@@H](OC(=O)[C@]2(C)O[C@@H]2C)[C@](C)(O)C(=O)CC1` had an IC50 in the assay on Jurkat of 26.2 µM. The same measure, in the same setting: to `C=C1CC[C@@]2(O)[C@H]1C(=O)[C@@H](C(C)C)C[C@@H](OC(=O)/C(C)=C\C)[C@]2(C)O` belongs greater than 70 µM. Consider `CC(=O)N[C@@H](CC(C)C)C(=O)N[C@@H](CC(C)C)C(=O)N[C@H](C=O)CCCNC(=N)N` [LEUPEPTIN], for which, on Plasminogen, the 50% inhibitory concentration (IC50) worked out at 1.2 µM.
